# Reference: US6087334A, “Anti-diabetic peptides” (Amylin Pharmaceuticals, Inc., priority 1998, dated 2000)
# Like-named read-outs stand apart in the source and are kept apart here. Where a SMILES comes first, the peptide text is derived from it. Bridges are numbered along the chain shown (N, C = ends). Where no end group is shown, it is not given here.
# Columns and labels:
# [1] = molecular target: T1, C1a receptor (C1a-type calcitonin receptor) (Rattus norvegicus, UniProt P32214); test: biochemical; conditions: HEK293 plasma membranes, [35S]-GTPγS 200 pM; read-out: ED50 (nM) Example B (C1a GTPγS)
# T1 construct: expressed in transfected cells
# T1 sequence (P32214 25-479 isoform P32214-2 limits assumed): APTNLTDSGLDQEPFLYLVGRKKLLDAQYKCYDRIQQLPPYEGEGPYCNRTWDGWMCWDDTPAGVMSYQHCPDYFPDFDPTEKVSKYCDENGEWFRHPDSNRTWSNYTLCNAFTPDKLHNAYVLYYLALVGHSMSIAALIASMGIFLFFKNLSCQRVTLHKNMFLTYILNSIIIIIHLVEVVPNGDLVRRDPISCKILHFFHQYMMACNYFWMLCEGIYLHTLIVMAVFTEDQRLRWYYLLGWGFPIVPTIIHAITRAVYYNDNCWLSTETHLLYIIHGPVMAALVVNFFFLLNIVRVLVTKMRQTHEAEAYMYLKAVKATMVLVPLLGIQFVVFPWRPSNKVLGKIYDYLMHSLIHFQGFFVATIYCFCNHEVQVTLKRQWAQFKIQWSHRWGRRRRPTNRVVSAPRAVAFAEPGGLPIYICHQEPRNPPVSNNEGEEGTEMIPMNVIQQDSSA
# Description: Peptide compounds of the present invention may be evaluated for agonist activity using the procedures described in Example B. The plasma membrane preparation of a 7-transmembrane-G-protein coupled receptor (GPCR) contains not only the receptor but also the G-proteins which constitute the first step in the intracellular signal transduction process when the receptor is activated by an agonist ligand. […] Agonist activation of a GPCR is accompanied by displacement of GDP by GTP from this site. Thus, measurement of the binding of a radiolabelled ligand, namely [^35 S]-GTPγS, for this binding site constitutes a measure of agonist potency for a given ligand. For agonism at the C1a receptor, a similar membrane preparation to that described below for the C1a binding studies is used. C1a pcDNA construction and transfection were carried out as previously described (Albrandt et al. 1993, FEBS Letters, 325:225-232). HEK293 cell lines showing stable expression of the rat C1a-type calcitonin receptor (C1a/293) or the human C1a-type calcitonin receptor (1154/293) were selected by G418 resistance and limiting dilution culture methods. Plasma membranes were collected from homogenized HEK293 cells and used in the [^35 S]-GTPγS assay. Individual test peptides at concentrations spanning 6 log units starting at around […] were examined for their ability to bind [^35 S]-GTPγS. Maximum agonist-specific binding was measured in the presence of 1 μM human calcitonin, constitutive binding was measured in the presence of buffer alone. Peptide potencies (EC50 's for concentration response curves) were calculated by non-linear regression using Prism™ (version 2.01, GraphPAD Software, San Diego, Calif.).
# [^35 S]-GTPγS C1a Agonist Studies
# Evaluation of the agonist activity of compounds versus the C1a receptor was carried out as follows:
# (§1) Reference peptides used in these studies were purchased from Bachem (Torrance, Calif.). All other chemicals were of the highest commercial grade. [^35 S]-GTPγS was purchased from NEN Life Science Products, Inc., Pittsburgh, Pa. [^125 I]-human calcitonin was purchased from Amersham Pharmacia Biotech, Inc., Piscataway, N.J.
# (§2) Methods for C1a pcDNA construction and transfection have been previously described (Albrandt, et al. 1993, FEBS Letters, 325:225-232). HEK293 cell lines stably expressing the rat C1a-type calcitonin receptor (C1a/293) or the human C1a-type calcitonin receptor (1154/293) were selected by G418 resistance and limiting dilution culture methods.
# (§3) Confluent cells were detached from tissue culture flasks by incubation with 5 mM EDTA in PBS. Cells were homogenized in ice-cold 20 mM HEPES, pH 7.4 with a Polytron homogenizer. Plasma membranes were collected using three cycles of washing in fresh buffer followed by centrifugation for 15 minutes at 48,000×g. The final membrane pellet was resuspended in 20 mM HEPES buffer containing 0.2 mM phenylmethylsulfonyl fluoride (PMSF) and stored at -70° C.
# Assay buffer contained 1 μM GDP, 1 mM EDTA, 5 mM MgCl2, 20 mM Hepes, and 150 mM NaCl, pH 7.4. Membranes (7.5 μg membrane protein/well), [^35 S]-GTPγS (200 pM), and peptides were combined in 200 μL buffer in 96-well microtiter plates. After a 75 minute incubation at room temperature, well contents were harvested onto GF/B glass fiber pads using a Tomtec Mach II plate harvestor (Hamden, Conn.). Dried pads were combined with scintillant and counted on a Wallac LKB Beta Plate scintillation counter. For concentration response curves, samples were run in duplicate over a 6 log concentration range starting at 10^-6 M or 10^-7 M. Maximum agonist-specific binding was measured in the presence of 1 μM human calcitonin, constitutive binding was measured in the presence of buffer alone.
# Peptide potencies (1C50 's for competitive binding, and EC50 's for concentration response curves) were calculated by non-linear regression using Prism (version 2.01, GraphPAD Software, San Diego, Calif.).
# [2] = molecular target: T1, C1a receptor (C1a-type calcitonin receptor); test: C1a/293 competitive binding, displacement of [125I]-human calcitonin (Example C); conditions: HEK293 plasma membranes (C1a/293), [125I]-human calcitonin 20 pM
# Description: Peptide compounds of the present invention may be evaluated for binding to the C1a receptor using the procedures described in Example C. The C1a receptor is the predominant mammalian calcitonin receptor subtype. C1a pcDNA construction and transfection were carried out as previously described (Albrandt et al. 1993, FEBS Letters, 325:225-232). HEK293 cell lines showing stable expression of the rat C1a-type calcitonin receptor (C1a/293) or the human C1a-type calcitonin receptor (1154/293) were selected by G418 resistance and limiting dilution culture methods. Plasma membranes were collected from homogenized HEK293 cells and used in the receptor binding assay. Individual test peptides at concentrations spanning 6 log units starting at around 10^-6 M were examined for their ability to displace [^125 I]-human calcitonin from the plasma membrane preparation using a 96-well microtiter plate format and scintillation counting with a Wallac LKB Beta plate counter. Competitive binding curves were constructed. Non-specific binding was measured in the presence of 100 nM calcitonin. Peptide potencies (IC50 's for competitive binding) were calculated by non-linear regression using Prism™ (version 2.01, GraphPAD Software, San Diego, Calif.).
# C1a/293 Competitive Binding Studies:
# Compounds were evaluated for competition in binding to the C1a receptor as follows:
# as §1
# as §2, with “1993).” for “1993, FEBS Letters, 325:225-232).”
# as §3
# Assay buffer contained 5 μg/mL bestatin, 1 μg/mL phosphoramidon, 1 mg/mL bovine serum albumin (fraction V), 1 mg/mL bacitracin, 1 mM MgCl2, and 20 mM HEPES, pH 7.4. Membranes (2-5 μg membrane protein/well), [^125 I]-human calcitonin (20 pM), and peptides were combined in 200 μL buffer in 96-well microtiter plates. After a 60 minute incubation at room temperature, well contents were harvested onto polyethyleneimine-treated GF/B glass fiber pads using a Tomtec Mach II plate harvestor (Hamden, Conn.). Dried pads were combined with scintillant and counted on a Wallac LKB Beta Plate scintillation counter (Gaithersburg, Md.). For competitive binding curves, samples were run in duplicate over a 6 log concentration range starting at 10^-6 or 10^-7 M. Non-specific binding was measured in the presence of 100 nM human calcitonin.
# [3] = test system: gastric emptying in conscious rats; conditions: for Inhibition of gastric emptying (in words): conscious rat model
# Description: Peptide compounds of the present invention may be evaluated for amylin agonist activity using the methods of measuring the rate of gastric emptying disclosed in, for example, Young et al., Diabetologia, 38(6):642-648 (1995). In a phenol red method, which is described in Example D below, conscious rats receive by gavage an a caloric gel containing methyl cellulose and a phenol red indicator. Twenty minutes after gavage, animals are anesthetized using halothane, the stomach exposed and clamped at the pyloric and lower esophageal sphincters, removed and opened into an alkaline solution. Stomach content may be derived from the intensity of the phenol red in the alkaline solution, measured by absorbance at a wavelength of 560 nm. In a tritiated glucose method, conscious rats are gavaged with tritiated glucose in water. The rats are gently restrained by the tail, the tip of which is anesthetized using lidocaine. Tritium in the plasma separated from tail blood is collected at various timepoints and detected in a beta counter. Test compounds are normally administered about one minute before gavage.
# Phenol Red Gastric Emptying Assay:
# Gastric emptying was measured using a modification (Plourde et al., Life Sci. 53:857-862 (1993)) of the original method of Scarpignato et al. (Arch. Int. Pharmacodyn. Ther. 246:286-295 (1980)). Conscious rats received by gavage. 1.5 mL of an a caloric gel containing 1.5% methyl cellulose (M-0262, Sigma Chemical Co., St. Louis, Mo.) and 0.05% phenol red indicator. Twenty minutes after gavage, rats were anesthetized using 5% halothane, the stomach exposed and clamped at the pyloric and lower esophageal sphincters using artery forceps, removed and opened into an alkaline solution which was made up to a fixed volume. Stomach content was derived from the intensity of the phenol red in the alkaline solution, measured by absorbance at a wavelength of 560 nm. […] In other experiments, particulate gastric contents were centrifuged to clear the solution for absorbance measurements. Where the diluted gastric contents remained turbid, the spectroscopic absorbance due to phenol red was derived as the difference between that present in alkaline versus acidified dilutent.
# In separate experiments on 7 rats, the stomach and small intestine were both excised and opened into an alkaline solution. […] Percent gastric emptying contents remaining=(absorbance at 20 min)/(absorbance at 0 min). For those compounds for which ED50 data is presented, dose response curves for gastric emptying were fitted to a 4-parameter logistic model using a least-squares iterative routine (ALLFIT, v2.7, NIH, Bethesda, Md.) to derive ED50 s. Because ED50 is log-normally distributed, it is expressed ± standard error of the logarithm. Pairwise comparisons were performed using one-way analysis of variance and the Student-Newman-Keuls multiple comparisons test (Instat v2.0, GraphPad Software, San Diego, Calif.) using P<0.05 as the level of significance.
# As a reference point for dose response studies, rat amylin (Bachem, Torrance, Calif.) dissolved in 0.15M saline, was administered as a 0.1 mL subcutaneous bolus in doses of 0, 0.01, 0.1, 1, 10 or 100 μg 5 minutes before gavage in Harlan Sprague Dawley (non-diabetic) rats fasted 20 hours and diabetic BB rats fasted 6 hours.
# [4] = in vivo in rats, rabbits and humans with Paget's disease; cited from earlier work
compound,measurement,setting,value
CC(C)C[C@H](NC(=O)[C@H](Cc1ccccc1)NC(=O)[C@H](CC(N)=O)NC(=O)[C@H](C)NC(=O)[C@H](CC(C)C)NC(=O)[C@H](CCCNC(=N)N)NC(=O)[C@H](CCC(N)=O)NC(=O)[C@@H](NC(=O)[C@H](C)NC(=O)[C@@H]1CSSC[C@H](NC(=O)[C@@H](N)CCCCN)C(=O)N[C@@H](CC(N)=O)C(=O)N[C@@H]([C@@H](C)O)C(=O)N[C@@H](C)C(=O)N[C@@H]([C@@H](C)O)C(=O)N1)[C@@H](C)O)C(=O)N[C@@H](C)C(=O)N[C@@H](CCCNC(=N)N)C(=O)N[C@@H](CO)C(=O)N[C@@H](CO)C(=O)NCC(=O)N[C@@H](Cc1ccc(O)cc1)C(N)=O [Example 16] (H-KCNTATCATQRLANFLARSSGY-NH2; disulfide 2-7),EC50,[1],1.4 nM
same,IC50,[2],20 nM
"Adrenomedullin (YRQSMNNFQGLRSFGCRFGTCTVQKLAHQIYQFTDKDKDNVAPRSKISPQGY; ends and bridges not checked; cysteine pairing not given here; UniProt P35318 95-146, looked up)",Inhibition of gastric emptying (in words),[3]; highest doses (100 μg),does not inhibit gastric emptying
"amylin (KCNTATCATQRLANFLVHSSNNFGAILSSTNVGSNTY-NH2; not fully specified (bridges); cysteine pairing not given here; UniProt P10997 34-70, looked up)",Lowering of plasma calcium,[4],up to 20%
same,Inhibition of gastric emptying (in words),[3]; dose response,dose-dependently inhibit gastric emptying
rat amylin,Inhibition of gastric emptying (in words),[3]; dose response,dose-dependent suppression of gastric emptying
same,ED50 for inhibition of gastric emptying,"[3]; diabetic BB rats fasted 6 hours, subcutaneous bolus 5 minutes before gavage",2.2 µg
same,Suppression of gastric emptying,"[3]; diabetic rats, 10 μg subcutaneous",complete
same,Example D ED50,"[3]; inhibition of gastric emptying, conscious rats, phenol red, 20 min after gavage",0.26 µg
same,Suppression of gastric emptying,"[3]; normal HSD rats, 1 μg subcutaneous",complete
"rat calcitonin (CGNLSTCMLGTYTQDLNKFHTFPQTSIGVGAP; ends and bridges not checked; cysteine pairing not given here; UniProt P01257 85-116, looked up)",Inhibition of gastric emptying (in words),[3]; dose response,dose-dependently inhibit gastric emptying
salmon calcitonin,Inhibition of gastric emptying (in words),[3]; dose response,dose-dependently inhibit gastric emptying
